According to patent US8192962B2, “Processes for detecting toxic substances” (Daikin Industries, Ltd., priority 2001, dated 2012):

Test system: Unknown protein yeast genes
Experiment: DNA chip mRNA expression in yeast, unknown protein yeast genes (Table 1)
Assay type: cell-based, Saccharomyces cerevisiae S288C
In short: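 Whole-genome yeast DNA chip hybridization (65° C., >12 h) of Cy-labeled cDNA from S288C cells exposed 2 h at 25° C. to a sub-lethal toxicant dose in YPD; value is intensity relative to chemical-free control.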

CCCCC[C@H](O)CC(=O)CCc1ccc(O)c(OC)c1 [(13), gingerol]
The level of expressed mRNA in the presence of chemical substance/The level of expressed mRNA in the absence of chemical substance (yeast gene YLR415C): 1.0 | The level of expressed mRNA in the presence of chemical substance/The level of expressed mRNA in the absence of chemical substance (yeast gene YLR421C, incubated two hours with substance): 1.6 | The level of expressed mRNA in the presence of chemical substance/The level of expressed mRNA in the absence of chemical substance (yeast gene YLR427W): 2.5 | The level of expressed mRNA in the presence of chemical substance/The level of expressed mRNA in the absence of chemical substance (yeast gene YLR460C): 0.7 | The level of expressed mRNA in the presence of chemical substance/The level of expressed mRNA in the absence of chemical substance (yeast gene YML013W): 1.2 | The level of expressed mRNA in the presence of chemical substance/The level of expressed mRNA in the absence of chemical substance (yeast gene YML029W): 2.0 | The level of expressed mRNA in the presence of chemical substance/The level of expressed mRNA in the absence of chemical substance (yeast gene YML041C): 1.2 | The level of expressed mRNA in the presence of chemical substance/The level of expressed mRNA in the absence of chemical substance (yeast gene YML079W): 1.6 | The level of expressed mRNA in the presence of chemical substance/The level of expressed mRNA in the absence of chemical substance (yeast gene YMR068W): 1.4 | The level of expressed mRNA in the presence of chemical substance/The level of expressed mRNA in the absence of chemical substance (yeast gene YMR071C): 1.3 | The level of expressed mRNA in the presence of chemical substance/The level of expressed mRNA in the absence of chemical substance (yeast gene YMR102C, incubated two hours with chemical substance): 4.4 | The level of expressed mRNA in the presence of chemical substance/The level of expressed mRNA in the absence of chemical substance (yeast gene YMR160W): 1.6 | The level of expressed mRNA in the presence of chemical substance/The level of expressed mRNA in the absence of chemical substance (yeast gene YMR258C, incubated two hours with substance): 1.6 | The level of expressed mRNA in the presence of chemical substance/The level of expressed mRNA in the absence of chemical substance (yeast gene YMR315W): 2.5 | The level of expressed mRNA in the presence of chemical substance/The level of expressed mRNA in the absence of chemical substance (yeast gene YNL026W): 1.7 | The level of expressed mRNA in the presence of chemical substance/The level of expressed mRNA in the absence of chemical substance (yeast gene YNL058C): 0.6 | The level of expressed mRNA in the presence of chemical substance/The level of expressed mRNA in the absence of chemical substance (yeast gene YNL063W): 1.5 | The level of expressed mRNA in the presence of chemical substance/The level of expressed mRNA in the absence of chemical substance (yeast gene YNL176C): 0.6 | The level of expressed mRNA in the presence of chemical substance/The level of expressed mRNA in the absence of chemical substance (yeast gene YNL194C): 1.5 | The level of expressed mRNA in the presence of chemical substance/The level of expressed mRNA in the absence of chemical substance (yeast gene YNL200C): 1.1 | The level of expressed mRNA in the presence of chemical substance/The level of expressed mRNA in the absence of chemical substance (yeast gene YNL253W): 1.1 | The level of expressed mRNA in the presence of chemical substance/The level of expressed mRNA in the absence of chemical substance (yeast gene YNL276C): 1.5 | The level of expressed mRNA in the presence of chemical substance/The level of expressed mRNA in the absence of chemical substance (yeast gene YNL300W, incubated two hours with chemical substance): 0.7 | The level of expressed mRNA in the presence of chemical substance/The level of expressed mRNA in the absence of chemical substance (yeast gene YNR051C): 2.1 | The level of expressed mRNA in the presence of chemical substance/The level of expressed mRNA in the absence of chemical substance (yeast gene YOL026C): 1.2 | The level of expressed mRNA in the presence of chemical substance/The level of expressed mRNA in the absence of chemical substance (yeast gene YOL031C): 2.4 | The level of expressed mRNA in the presence of chemical substance/The level of expressed mRNA in the absence of chemical substance (yeast gene YOL084W, incubated two hours with substance): 6.4 | The level of expressed mRNA in the presence of chemical substance/The level of expressed mRNA in the absence of chemical substance (yeast gene YOL101C): 0.2 | The level of expressed mRNA in the presence of chemical substance/The level of expressed mRNA in the absence of chemical substance (yeast gene YOR022C): 1.7 | The level of expressed mRNA in the presence of chemical substance/The level of expressed mRNA in the absence of chemical substance (yeast gene YOR087W): 1.2 | The level of expressed mRNA in the presence of chemical substance/The level of expressed mRNA in the absence of chemical substance (yeast gene YOR138C): 1.8 | The level of expressed mRNA in the presence of chemical substance/The level of expressed mRNA in the absence of chemical substance (yeast gene YOR253W): 0.5 | The level of expressed mRNA in the presence of chemical substance/The level of expressed mRNA in the absence of chemical substance (yeast gene YOR267C): 1.4 | The level of expressed mRNA in the presence of chemical substance/The level of expressed mRNA in the absence of chemical substance (yeast gene YOR338W): 1.4 | The level of expressed mRNA in the presence of chemical substance/The level of expressed mRNA in the absence of chemical substance (yeast gene YOR391C): 2.3 | The level of expressed mRNA in the presence of chemical substance/The level of expressed mRNA in the absence of chemical substance (yeast gene YPL005W): 1.2 | The level of expressed mRNA in the presence of chemical substance/The level of expressed mRNA in the absence of chemical substance (yeast gene YPL087W, incubated two hours with chemical substance): 4.4 | The level of expressed mRNA in the presence of chemical substance/The level of expressed mRNA in the absence of chemical substance (yeast gene YPL150W): 2.1 | The level of expressed mRNA in the presence of chemical substance/The level of expressed mRNA in the absence of chemical substance (yeast gene YPL152W): 1.4 | The level of expressed mRNA in the presence of chemical substance/The level of expressed mRNA in the absence of chemical substance (yeast gene YPL168W): 1.0 | The level of expressed mRNA in the presence of chemical substance/The level of expressed mRNA in the absence of chemical substance (yeast gene YPL180W): 1.5 | The level of expressed mRNA in the presence of chemical substance/The level of expressed mRNA in the absence of chemical substance (yeast gene YPL188W): 0.9 | The level of expressed mRNA in the presence of chemical substance/The level of expressed mRNA in the absence of chemical substance (yeast gene YPL221W): 1.0 | The level of expressed mRNA in the presence of chemical substance/The level of expressed mRNA in the absence of chemical substance (yeast gene YPL225W): 0.8 | The level of expressed mRNA in the presence of chemical substance/The level of expressed mRNA in the absence of chemical substance (yeast gene YPL280W): 2.4 | The level of expressed mRNA in the presence of chemical substance/The level of expressed mRNA in the absence of chemical substance (yeast gene YPR049C): 1.6 | The level of expressed mRNA in the presence of chemical substance/The level of expressed mRNA in the absence of chemical substance (yeast gene YPR146C): 1.3 | The level of expressed mRNA in the presence of chemical substance/The level of expressed mRNA in the absence of chemical substance (yeast gene YPR148C): 1.2 | The level of expressed mRNA in the presence of chemical substance/The level of expressed mRNA in the absence of chemical substance (yeast gene YPR158W, incubated two hours with substance): 1.6 | The level of expressed mRNA in the presence of chemical substance/The level of expressed mRNA in the absence of chemical substance (yeast gene YPR172W): 1.3
